Patent publication US10717740B2, “Solid forms of acalabrutinib and process for preparation thereof” (DR. REDDY'S LABORATORIES LIMITED, priority 2017, dated 2020)

Test: Solid-state storage stability of the crystalline form
Assay type: physicochemical

Measured: stability of crystalline form on storage

CC#CC(=O)N1CCC[C@H]1c1nc(-c2ccc(C(=O)Nc3ccccn3)cc2)c2c(N)nccn12 [form RSV3, acalabrutinib]
stable: 3 months at 2-8° C. | 3 months at 25° C./60% RH | 3 months at 40° C./75% RH
